Test results as given in patent US10131652B2, “Pyrimidinyloxy benzene derivatives as herbicides” (E. I. DU PONT DE NEMOURS AND COMPANY, priority 2014, dated 2018).

Key:
Assay type in all cases: in vivo
corn (Zea mays) = test: Test B pre-/postemergence plant response
Method in brief: (§1)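 Evaluation is visual, about 10 days after application, rating injury from 0 (none) to 100 (complete control) relative to untreated controls. Application was a preemergence soil spray on seeded pots or a postemergence spray on one- to two-leaf plants.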

[1] = test system: barnyardgrass (Echinochloa crus-galli); test: Test B pre-/postemergence plant response
Method in brief: as §1

[2] = test system: wheat (Triticum aestivum); test: Test B pre-/postemergence plant response
Method in brief: as §1

[3] = test system: large (Lg) crabgrass (Digitaria sanguinalis); test: Test B pre-/postemergence plant response
Method in brief: as §1

[4] = test system: velvetleaf (Abutilon theophrasti); test: Test B pre-/postemergence plant response
Method in brief: as §1

[5] = test system: pigweed (Amaranthus retroflexus); test: Test B pre-/postemergence plant response
Method in brief: as §1

[6] = test system: morningglory (Ipomoea spp.); test: Test B pre-/postemergence plant response
Method in brief: as §1

[7] = test system: giant foxtail (Setaria faberii); test: Test B pre-/postemergence plant response
Method in brief: as §1

[8] = test system: ducksalad (Heteranthera limosa); test: Test C flooded paddy test plant response; details: Flood, 250 g ai/ha; scale of 0 to 100 where 0 is no effect and 100 is complete control; 13 to 15 days
Method in brief: (§2)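 Readout is a visual 0–100 score (100 = complete control) versus controls at 13–15 days. Plants at 2-leaf stage, flooded to 3 cm, treated through paddy water.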

[9] = test system: small-flower umbrella sedge (Cyperus difformis); test: Test C flooded paddy test plant response; details: Flood, 250 g ai/ha; scale of 0 to 100 where 0 is no effect and 100 is complete control; 13 to 15 days
Method in brief: as §2

[10] = test system: barnyardgrass (Echinochloa crus-galli); test: Test C flooded paddy test plant response; details: Flood, 250 g ai/ha; scale of 0 to 100 where 0 is no effect and 100 is complete control; 13 to 15 days
Method in brief: as §2

rice (Oryza sativa) = test: Test C flooded paddy test plant response; details: Flood, 250 g ai/ha; scale of 0 to 100 where 0 is no effect and 100 is complete control; 13 to 15 days
Method in brief: as §2

[11] = 125 g ai/ha, postemergence, 0 to 100 scale, 0 no effect, 100 complete control
[12] = Postemergence, 500 g ai/ha, 0 to 100 scale (0 no effect, 100 complete control)
[13] = Preemergence, 125 g ai/ha, 0 to 100 scale (0 no effect, 100 complete control)
[14] = Preemergence, 500 g ai/ha, 0 to 100 scale where 0 is no effect and 100 is complete control
[15] = Preemergence, 125 g ai/ha, 0 to 100 scale where 0 is no effect and 100 is complete control
[16] = Preemergence, 500 g ai/ha, 0 to 100 scale (0 no effect, 100 complete control)
[17] = 500 g ai/ha, postemergence, 0 to 100 scale, 0 no effect, 100 complete control

## Clc1ccc(-c2c(Br)cccc2Oc2ncc(Cl)cn2)nc1 [Compound 135]
Corn (Zea mays); [11]
  Plant response rating, Corn: 10
Corn (Zea mays); [12]
  Plant response rating, Corn: 30
Corn (Zea mays); [13]
  Corn plant response rating: 0
Corn (Zea mays); [14]
  Plant response rating, Corn: 0
[1]; [11]
  Plant response rating, Barnyardgrass: 10
[1]; [12]
  Plant response rating, Barnyardgrass: 40
[1]; [13]
  Barnyardgrass plant response rating: 10
[1]; [14]
  Plant response rating, Barnyardgrass: 60
[2]; [11]
  Plant response rating, Wheat: 0
[2]; [12]
  Plant response rating, Wheat: 10
[2]; [13]
  Wheat plant response rating: 0
[2]; [14]
  Plant response rating, Wheat: 0
[3]; [11]
  Plant response rating, Crabgrass, Large: 10
[3]; [12]
  Plant response rating, Crabgrass, Large: 50
[3]; [13]
  Crabgrass, Large plant response rating: 80
[3]; [14]
  Plant response rating, Crabgrass, Large: 100
[4]; [11]
  Plant response rating, Velvetleaf: 40
[4]; [12]
  Plant response rating, Velvetleaf: 80
[4]; [13]
  Velvetleaf plant response rating: 20
[4]; [14]
  Plant response rating, Velvetleaf: 60
[5]; [11]
  Plant response rating, Pigweed: 100
[5]; [12]
  Plant response rating, Pigweed: 100
[5]; [13]
  Pigweed plant response rating: 90
[5]; [14]
  Plant response rating, Pigweed: 100
[6]; [11]
  Plant response rating, Morningglory: 20
[6]; [12]
  Plant response rating, Morningglory: 50
[6]; [13]
  Morningglory plant response rating: 0
[6]; [14]
  Plant response rating, Morningglory: 10
[7]; [11]
  Plant response rating, Foxtail, Giant: 10
[7]; [12]
  Plant response rating, Foxtail, Giant: 60
[7]; [13]
  Foxtail, Giant plant response rating: 60
[7]; [14]
  Plant response rating, Foxtail, Giant: 100
[8]
  Ducksalad plant response rating: 0
[9]
  Sedge, Umbrella plant response rating: 0
[10]
  Barnyardgrass plant response rating: 0
Rice (Oryza sativa)
  Rice plant response rating: 0

## Cn1nc(C(F)(F)F)cc1-c1c(C#N)cccc1Oc1ncc(Cl)cn1 [Compound 136]
Corn (Zea mays); [12]
  Plant response rating, Corn: 70
Corn (Zea mays); [14]
  Plant response rating, Corn: 40
[1]; [12]
  Plant response rating, Barnyardgrass: 90
[1]; [14]
  Plant response rating, Barnyardgrass: 100
[2]; [12]
  Plant response rating, Wheat: 40
[2]; [14]
  Plant response rating, Wheat: 30
[3]; [12]
  Plant response rating, Crabgrass, Large: 90
[3]; [14]
  Plant response rating, Crabgrass, Large: 100
[4]; [12]
  Plant response rating, Velvetleaf: 100
[4]; [14]
  Plant response rating, Velvetleaf: 100
[5]; [12]
  Plant response rating, Pigweed: 100
[5]; [14]
  Plant response rating, Pigweed: 100
[6]; [12]
  Plant response rating, Morningglory: 90
[6]; [14]
  Plant response rating, Morningglory: 90
[7]; [12]
  Plant response rating, Foxtail, Giant: 80
[7]; [14]
  Plant response rating, Foxtail, Giant: 100
[8]
  Ducksalad plant response rating: 40
[9]
  Sedge, Umbrella plant response rating: 40
[10]
  Barnyardgrass plant response rating: 0
Rice (Oryza sativa)
  Rice plant response rating: 0

## Cn1cc(-c2ccccc2Oc2ncc(Cl)cn2)cn1 [Compound 11]
Corn (Zea mays); [11]
  Plant response rating, Corn: 0
Corn (Zea mays); [12]
  Plant response rating, Corn: 0
Corn (Zea mays); [15]
  Plant response rating, Corn: 0
Corn (Zea mays); [16]
  Plant response rating, Corn: 0
[1]; [11]
  Plant response rating, Barnyardgrass: 0
[1]; [12]
  Plant response rating, Barnyardgrass: 10
[1]; [15]
  Plant response rating, Barnyardgrass: 0
[1]; [16]
  Plant response rating, Barnyardgrass: 0
[2]; [11]
  Plant response rating, Wheat: 0
[2]; [12]
  Plant response rating, Wheat: 0
[2]; [15]
  Plant response rating, Wheat: 0
[2]; [16]
  Plant response rating, Wheat: 0
[3]; [11]
  Plant response rating, Crabgrass, Large: 10
[3]; [12]
  Plant response rating, Crabgrass, Large: 10
[3]; [15]
  Plant response rating, Crabgrass, Large: 0
[3]; [16]
  Plant response rating, Crabgrass, Large: 0
[4]; [11]
  Plant response rating, Velvetleaf: 10
[4]; [12]
  Plant response rating, Velvetleaf: 20
[4]; [15]
  Plant response rating, Velvetleaf: 10
[4]; [16]
  Plant response rating, Velvetleaf: 10
[5]; [11]
  Plant response rating, Pigweed: 10
[5]; [12]
  Plant response rating, Pigweed: 20
[5]; [15]
  Plant response rating, Pigweed: 0
[5]; [16]
  Plant response rating, Pigweed: 30
[6]; [11]
  Plant response rating, Morningglory: 10
[6]; [12]
  Plant response rating, Morningglory: 20
[6]; [15]
  Plant response rating, Morningglory: 0
[7]; [11]
  Plant response rating, Foxtail, Giant: 0
[7]; [12]
  Plant response rating, Foxtail, Giant: 0
[7]; [15]
  Plant response rating, Foxtail, Giant: 0
[7]; [16]
  Plant response rating, Foxtail, Giant: 0
[8]
  Ducksalad plant response rating: 0
[9]
  Sedge, Umbrella plant response rating: 0
[10]
  Barnyardgrass plant response rating: 0
Rice (Oryza sativa)
  Rice plant response rating: 0

## Clc1ccc(-c2ccc(Br)cc2Oc2ncc(Cl)cn2)nc1 [Compound 203]
Corn (Zea mays); [11]
  Plant response rating, Corn: 0
Corn (Zea mays); [17]
  Plant response rating, Corn: 0
Corn (Zea mays); [13]
  Corn plant response rating: 0
Corn (Zea mays); [14]
  Plant response rating, Corn: 0
[1]; [11]
  Plant response rating, Barnyardgrass: 0
[1]; [17]
  Plant response rating, Barnyardgrass: 0
[1]; [13]
  Barnyardgrass plant response rating: 0
[1]; [14]
  Plant response rating, Barnyardgrass: 0
[2]; [11]
  Plant response rating, Wheat: 0
[2]; [17]
  Plant response rating, Wheat: 0
[2]; [13]
  Wheat plant response rating: 0
[2]; [14]
  Plant response rating, Wheat: 0
[3]; [11]
  Plant response rating, Crabgrass, Large: 0
[3]; [17]
  Plant response rating, Crabgrass, Large: 0
[3]; [13]
  Crabgrass, Large plant response rating: 0
[3]; [14]
  Plant response rating, Crabgrass, Large: 0
[4]; [11]
  Plant response rating, Velvetleaf: 0
[4]; [17]
  Plant response rating, Velvetleaf: 0
[4]; [13]
  Velvetleaf plant response rating: 0
[4]; [14]
  Plant response rating, Velvetleaf: 0
[5]; [11]
  Plant response rating, Pigweed: 0
[5]; [17]
  Plant response rating, Pigweed: 0
[5]; [13]
  Pigweed plant response rating: 0
[5]; [14]
  Plant response rating, Pigweed: 0
[6]; [11]
  Plant response rating, Morningglory: 0
[6]; [17]
  Plant response rating, Morningglory: 0
[6]; [13]
  Morningglory plant response rating: 0
[6]; [14]
  Plant response rating, Morningglory: 0
[7]; [11]
  Plant response rating, Foxtail, Giant: 0
[7]; [17]
  Plant response rating, Foxtail, Giant: 0
[7]; [13]
  Foxtail, Giant plant response rating: 0
[7]; [14]
  Plant response rating, Foxtail, Giant: 0
[8]
  Ducksalad plant response rating: 0
[9]
  Sedge, Umbrella plant response rating: 0
[10]
  Barnyardgrass plant response rating: 0
Rice (Oryza sativa)
  Rice plant response rating: 0
